These are literature values, as cited in patent US20240293300A1, “SKIN PENETRATION COSMETIC MATERIAL, AND SKIN PENETRATION COSMETIC MATERIAL PRODUCTION METHOD” (SHISEIDO COMPANY, LTD., priority 2021, published 2024).

As a reminder, the Log P is a log measure of how a compound divides between an organic and an aqueous phase.

Where a SMILES comes first, the peptide text is derived from it.

For this data set the following is noted: 1-octanol/water partition coefficient.
Take `NCC(=O)NCC(=O)O` [glycylglycine] (H-Gly-Gly-OH): the “Log P” value is −2.3.
On to `N[C@@H](CCC(=O)O)C(=O)O` [glutamic acid], for which the lipophilicity (Log P) was −3.7.
For piperidine propionic acid, the lipophilicity (Log P) is −2.06.
For the molecule `Cc1cc(C)nc(-n2nc(C)cc2C)n1.Cl` [compound a, 2-(3,5-dimethylpyrazol-1-yl)-4,6-dimethyl pyrimidine hydrochloride], the lipophilicity (Log P) is 1.36.
